“Also recorded” adds a separate entry of the source. Like-named read-outs stand apart in the source and are kept apart here.
How the values were obtained:
[1] = biological target: T1, EfCdnE (Enterococcus faecalis, UniProt P0DX98); experiment: ITC analysis of nucleotide binding to wild-type EfCdnE
T1 construct: Full-length gene fragments encoding ClCdnE from Cecembia lonarensis; made in house; host or cells: E. coli BL21 (DE3)
Method: (§1) EfCdnE was chosen as the sample to evaluate the affinity of this class of enzyme to different nucleotides by isothermal titration calorimetry (ITC), using nano-ITC (TA Instruments). EfCdnE was dialyzed overnight against an assay buffer containing 20 mM Tris pH 8.0, 150 mM NaCl. The nucleotides to be tested (UTP, CTP, ATP and GTP, and their analogs) were each dissolved in the same buffer. Titration was carried out by 20 sequential injections of the nucleotide at a concentration of 250 μM at 3-min intervals to 50 μM EfCdnE, with a stirring speed of 300 rpm. The heat of dilution resulting from injecting the nucleotide into the assay buffer was subtracted. The final data were analyzed and curve-fitted with sequential two-site mode by using NanoAnalyze v3.12.5 (TA Instruments).

[2] = biological target: T2, EfCdnE^W281A (Enterococcus faecalis, UniProt P0DX98, W281A); experiment: ITC analysis of nucleotide binding to EfCdnE^W281A mutant; settings: read-out: dissociation constant (KD)
T2 construct: Full-length gene fragments encoding ClCdnE from Cecembia lonarensis; His6 (C); made in house; host or cells: E. coli BL21 (DE3)
T2 sequence (P0DX98 1-299 W281A): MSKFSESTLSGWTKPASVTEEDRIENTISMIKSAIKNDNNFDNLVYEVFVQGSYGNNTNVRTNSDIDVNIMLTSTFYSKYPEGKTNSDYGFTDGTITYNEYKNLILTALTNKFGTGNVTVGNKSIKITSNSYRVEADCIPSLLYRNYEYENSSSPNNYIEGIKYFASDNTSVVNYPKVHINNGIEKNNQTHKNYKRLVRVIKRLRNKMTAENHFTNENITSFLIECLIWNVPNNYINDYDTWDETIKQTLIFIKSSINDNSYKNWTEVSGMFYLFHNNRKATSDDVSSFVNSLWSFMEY
Source text: (§2) To validate the importance of this motif, we changed Arg279 and Trp281 of EfCdnE to a smaller alanine residue and assessed the substrate specificity and product synthesis of both wild-type and mutant EfCdnE by ITC and LC-MS/MS. […] Based on sequence conservation and structural similarity, it is proposed that the cyclic di-pyrimidine-synthesizing CdnE proteins, including ClCdnE, EfCdnE, and LpCdnE, form smaller donor pockets that act as molecular gauges to recognize and retain the binding of pyrimidine nucleotides but weaken or exclude the binding to purine nucleotides (Fig. 6F). In combination with the conserved Asn residue in the acceptor pocket, the substrate specificity for double pyrimidine was achieved (Fig. 6F).
as §1, with “Titration was carried out by 20 sequential injections of the nucleotide at a concentration of 250 μM at 3-min intervals to 50 μM EfCdnE, with a stirring speed of 300 rpm. The heat of dilution resulting from injecting the nucleotide into the assay buffer was subtracted.” left out

[3] = biological target: T3, EfCdnE^R279A (Enterococcus faecalis, UniProt P0DX98, R279A); experiment: ITC analysis of nucleotide binding to EfCdnE^R279A mutant
T3 construct: Full-length gene fragments encoding ClCdnE from Cecembia lonarensis; His6 (C); made in house; host or cells: E. coli BL21 (DE3)
T3 sequence (P0DX98 whole entry R279A, the tested form may be a part): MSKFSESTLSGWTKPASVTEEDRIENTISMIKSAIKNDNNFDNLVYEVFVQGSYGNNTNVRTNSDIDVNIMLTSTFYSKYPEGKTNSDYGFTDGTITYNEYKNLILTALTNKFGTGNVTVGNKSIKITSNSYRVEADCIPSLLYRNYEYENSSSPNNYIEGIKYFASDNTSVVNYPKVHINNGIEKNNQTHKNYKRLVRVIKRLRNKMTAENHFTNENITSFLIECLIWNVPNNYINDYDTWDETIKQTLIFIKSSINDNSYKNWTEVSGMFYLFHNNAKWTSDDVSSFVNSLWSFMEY
Source text: as §2
as §1, with “Titration was carried out by 20 sequential injections of the nucleotide at a concentration of 250 μM at 3-min intervals to 50 μM EfCdnE, with a stirring speed of 300 rpm. The heat of dilution resulting from injecting the nucleotide into the assay buffer was subtracted.” left out

[4] = dissociation constant (KD), second of two binding sites, ITC, wild-type EfCdnE, sequential two-site fit, second-named site (acceptor pocket for UMPnPP)

T1 sequence (P0DX98 whole entry, the tested form may be a part): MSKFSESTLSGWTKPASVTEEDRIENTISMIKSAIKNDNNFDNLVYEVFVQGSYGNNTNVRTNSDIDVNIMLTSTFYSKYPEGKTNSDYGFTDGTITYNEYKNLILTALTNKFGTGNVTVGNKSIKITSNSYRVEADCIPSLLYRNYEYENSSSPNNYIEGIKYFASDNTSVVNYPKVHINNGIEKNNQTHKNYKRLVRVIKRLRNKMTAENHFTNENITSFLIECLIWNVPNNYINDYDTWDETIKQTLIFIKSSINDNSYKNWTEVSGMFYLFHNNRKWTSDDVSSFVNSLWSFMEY

SMILES	binding to EfCdnE (in words) ([1]; ITC, wild-type EfCdnE)	Kd [2] [µM]	binding affinity, dissociation constant (in words) [3]	Kd [1] [µM]	binding to EfCdnE pre-incubated with UMPnPP (in words) ([1]; ITC, EfCdnE pre-incubated with UMPnPP)	Kd [1, 4] [µM]
Nc1ncnc2c1ncn2[C@@H]1O[C@H](COP(=O)(O)CP(=O)(O)OP(=O)(O)O)[C@@H](O)[C@H]1O [AMPcPP]	No binding; also recorded: too weak to be detected	35				
Nc1ncnc2c1ncn2[C@@H]1O[C@H](COP(=O)(O)OP(=O)(O)OP(=O)(O)O)[C@@H](O)[C@H]1O [ATP]	did not		near micromolar			
Nc1ccn([C@@H]2O[C@H](COP(=O)(O)CP(=O)(O)OP(=O)(O)O)[C@@H](O)[C@H]2O)c(=O)n1 [CMPcPP]				0.0187	no binding; also recorded: did not bind	1.27
Nc1nc2c(ncn2[C@@H]2O[C@H](COP(=O)(O)CP(=O)(O)OP(=O)(O)O)[C@@H](O)[C@H]2O)c(=O)[nH]1 [GMPcPP]	No binding; also recorded: too weak to be detected	65				
Nc1nc2c(ncn2[C@@H]2O[C@H](COP(=O)(O)OP(=O)(O)OP(=O)(O)O)[C@@H](O)[C@H]2O)c(=O)[nH]1 [GTP]	did not		near micromolar			
O=c1ccn([C@@H]2O[C@H](COP(=O)(O)NP(=O)(O)OP(=O)(O)O)[C@@H](O)[C@H]2O)c(=O)[nH]1 [UMPnPP]				0.0147		0.98

From article PMC10442399, “Crystal structure and functional implications of cyclic di-pyrimidine-synthesizing cGAS/DncV-like nucleotidyltransferases” (Nature Communications, 2023)
